Measured values taken from the supplement of paper PMC10883282.
± gives the standard deviation of the averaged measurements.

Assays:
Assay in all cases: relative viability vs DMSO control (72 h) (fraction); higher = more viable cells
VA-ES-BJ = test system: VA-ES-BJ
Method in brief: (§1)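 ATPLite readings, expressed as percent growth and averaged over up to triplicate wells, provided relative viability. Before reading, sarcoma cell lines seeded in 384-well plates to reach 80–90% confluence received 2.5 µl of serially diluted compound after 24 h, from source plates of 10 mM to 0.0002 mM. Plates were held 72 h at 37 °C, 5% CO2, with 0.1% DMSO as vehicle and a 5 µM positive control. The data were rescaled to 1 for full and 0 for none.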

SK-LMS-1 = test system: SK-LMS-1
Method in brief: as §1

SW1353 = test system: SW1353
Method in brief: as §1

SW684 = test system: SW684
Method in brief: as §1

A204 = test system: A204
Method in brief: as §1

MES-SA = test system: MES-SA
Method in brief: as §1

HT1080 = test system: HT1080
Method in brief: as §1

G401 = test system: G401
Method in brief: as §1

SYO-1 = test system: SYO-1
Method in brief: as §1

SW872 = test system: SW872
Method in brief: as §1

KHOS-NP = test system: KHOS-NP
Method in brief: as §1

HS729 = test system: HS729
Method in brief: as §1

Compound: CO[C@H]1C[C@@H]2CC[C@@H](C)[C@@](O)(O2)C(=O)C(=O)N2CCCC[C@H]2C(=O)O[C@H]([C@H](C)C[C@@H]2CC[C@@H](OC(=O)C(C)(CO)CO)[C@H](OC)C2)CC(=O)[C@H](C)/C=C(\C)[C@@H](O)[C@@H](OC)C(=O)[C@H](C)C[C@H](C)/C=C/C=C/C=C/1C [Temsirolimus]
- relative viability (VA-ES-BJ; 0.00017 µM): 0.864 ± 0.052
- relative viability (VA-ES-BJ; 0.00051 µM): 0.723 ± 0.024
- relative viability (VA-ES-BJ; 0.00152 µM): 0.577 ± 0.027
- relative viability (VA-ES-BJ; 0.00457 µM): 0.547 ± 0.026
- relative viability (VA-ES-BJ; 0.01372 µM): 0.487 ± 0.031
- relative viability (VA-ES-BJ; 0.04115 µM): 0.448 ± 0.012
- relative viability (VA-ES-BJ; 0.1235 µM): 0.415 ± 0.0084
- relative viability (VA-ES-BJ; 0.3704 µM): 0.42 ± 0.022
- relative viability (VA-ES-BJ; 1.111 µM): 0.419 ± 0.0095
- relative viability (VA-ES-BJ; 3.333 µM): 0.415 ± 0.02
- relative viability (VA-ES-BJ; 10 µM): 0.377 ± 0.0045
- relative viability (SK-LMS-1; 0.00017 µM): 0.916 ± 0.028
- relative viability (SK-LMS-1; 0.00051 µM): 0.699 ± 0.035
- relative viability (SK-LMS-1; 0.00152 µM): 0.6325 ± 0.004
- relative viability (SK-LMS-1; 0.00457 µM): 0.597 ± 0.017
- relative viability (SK-LMS-1; 0.01372 µM): 0.537 ± 0.022
- relative viability (SK-LMS-1; 0.04115 µM): 0.495 ± 0.012
- relative viability (SK-LMS-1; 0.1235 µM): 0.477 ± 0.031
- relative viability (SK-LMS-1; 0.3704 µM): 0.472 ± 0.021
- relative viability (SK-LMS-1; 1.111 µM): 0.464 ± 0.02
- relative viability (SK-LMS-1; 3.333 µM): 0.441 ± 0.005
- relative viability (SK-LMS-1; 10 µM): 0.0134 ± 0.001
- relative viability (SW1353; 0.00017 µM): 0.892 ± 0.051
- relative viability (SW1353; 0.00051 µM): 0.859 ± 0.059
- relative viability (SW1353; 0.00152 µM): 0.827 ± 0.1
- relative viability (SW1353; 0.00457 µM): 0.781 ± 0.1
- relative viability (SW1353; 0.01372 µM): 0.745 ± 0.12
- relative viability (SW1353; 0.04115 µM): 0.72 ± 0.06
- relative viability (SW1353; 0.1235 µM): 0.68 ± 0.046
- relative viability (SW1353; 0.3704 µM): 0.664 ± 0.027
- relative viability (SW1353; 1.111 µM): 0.63 ± 0.046
- relative viability (SW1353; 3.333 µM): 0.602 ± 0.05
- relative viability (SW1353; 10 µM): 0.149 ± 0.013
- relative viability (SW684; 0.00017 µM): 1.06 ± 0.057
- relative viability (SW684; 0.00051 µM): 1.04 ± 0.038
- relative viability (SW684; 0.00152 µM): 0.956 ± 0.075
- relative viability (SW684; 0.00457 µM): 0.919 ± 0.05
- relative viability (SW684; 0.01372 µM): 0.799 ± 0.027
- relative viability (SW684; 0.04115 µM): 0.711 ± 0.029
- relative viability (SW684; 0.1235 µM): 0.752 ± 0.051
- relative viability (SW684; 0.3704 µM): 0.79 ± 0.026
- relative viability (SW684; 1.111 µM): 0.767 ± 0.038
- relative viability (SW684; 3.333 µM): 0.767 ± 0.015
- relative viability (SW684; 10 µM): -0.00523 ± 0.0025
- relative viability (A204; 0.00017 µM): 0.925 ± 0.03
- relative viability (A204; 0.00051 µM): 0.762 ± 0.11
- relative viability (A204; 0.00152 µM): 0.622 ± 0.032
- relative viability (A204; 0.00457 µM): 0.551 ± 0.0085
- relative viability (A204; 0.01372 µM): 0.534 ± 0.013
- relative viability (A204; 0.04115 µM): 0.504 ± 0.019
- relative viability (A204; 0.1235 µM): 0.476 ± 0.016
- relative viability (A204; 0.3704 µM): 0.453 ± 0.013
- relative viability (A204; 1.111 µM): 0.431 ± 0.012
- relative viability (A204; 3.333 µM): 0.392 ± 0.014
- relative viability (A204; 10 µM): 0.334 ± 0.011
- relative viability (MES-SA; 0.00017 µM): 0.814 ± 0.042
- relative viability (MES-SA; 0.00051 µM): 0.651 ± 0.03
- relative viability (MES-SA; 0.00152 µM): 0.497 ± 0.042
- relative viability (MES-SA; 0.00457 µM): 0.423 ± 0.008
- relative viability (MES-SA; 0.01372 µM): 0.382 ± 0.022
- relative viability (MES-SA; 0.04115 µM): 0.3571 ± 0.003
- relative viability (MES-SA; 0.1235 µM): 0.353 ± 0.021
- relative viability (MES-SA; 0.3704 µM): 0.3494 ± 0.0012
- relative viability (MES-SA; 1.111 µM): 0.343 ± 0.018
- relative viability (MES-SA; 3.333 µM): 0.314 ± 0.015
- relative viability (MES-SA; 10 µM): 0.223 ± 0.008
- relative viability (HT1080; 0.00017 µM): 1.02 ± 0.045
- relative viability (HT1080; 0.00051 µM): 1.01 ± 0.035
- relative viability (HT1080; 0.00152 µM): 1.05 ± 0.043
- relative viability (HT1080; 0.00457 µM): 1.01 ± 0.041
- relative viability (HT1080; 0.01372 µM): 0.95 ± 0.025
- relative viability (HT1080; 0.04115 µM): 0.918 ± 0.036
- relative viability (HT1080; 0.1235 µM): 0.936 ± 0.044
- relative viability (HT1080; 0.3704 µM): 0.929 ± 0.033
- relative viability (HT1080; 1.111 µM): 0.908 ± 0.039
- relative viability (HT1080; 3.333 µM): 0.8 ± 0.047
- relative viability (HT1080; 10 µM): 0.0491 ± 0.0031
- relative viability (G401; 0.00017 µM): 0.945 ± 0.038
- relative viability (G401; 0.00051 µM): 0.917 ± 0.049
- relative viability (G401; 0.00152 µM): 0.869 ± 0.048
- relative viability (G401; 0.00457 µM): 0.82 ± 0.064
- relative viability (G401; 0.01372 µM): 0.766 ± 0.033
- relative viability (G401; 0.04115 µM): 0.706 ± 0.022
- relative viability (G401; 0.1235 µM): 0.665 ± 0.011
- relative viability (G401; 0.3704 µM): 0.637 ± 0.025
- relative viability (G401; 1.111 µM): 0.621 ± 0.0071
- relative viability (G401; 3.333 µM): 0.586 ± 0.023
- relative viability (G401; 10 µM): 0.396 ± 0.034
- relative viability (SYO-1; 0.00017 µM): 0.884 ± 0.038
- relative viability (SYO-1; 0.00051 µM): 0.877 ± 0.065
- relative viability (SYO-1; 0.00152 µM): 0.878 ± 0.035
- relative viability (SYO-1; 0.00457 µM): 0.83 ± 0.063
- relative viability (SYO-1; 0.01372 µM): 0.798 ± 0.065
- relative viability (SYO-1; 0.04115 µM): 0.749 ± 0.062
- relative viability (SYO-1; 0.1235 µM): 0.687 ± 0.056
- relative viability (SYO-1; 0.3704 µM): 0.633 ± 0.051
- relative viability (SYO-1; 1.111 µM): 0.589 ± 0.024
- relative viability (SYO-1; 3.333 µM): 0.544 ± 0.045
- relative viability (SYO-1; 10 µM): 0.323 ± 0.017
- relative viability (SW872; 0.00017 µM): 0.85 ± 0.035
- relative viability (SW872; 0.00051 µM): 0.805 ± 0.063
- relative viability (SW872; 0.00152 µM): 0.759 ± 0.04
- relative viability (SW872; 0.00457 µM): 0.682 ± 0.037
- relative viability (SW872; 0.01372 µM): 0.643 ± 0.063
- relative viability (SW872; 0.04115 µM): 0.594 ± 0.026
- relative viability (SW872; 0.1235 µM): 0.569 ± 0.045
- relative viability (SW872; 0.3704 µM): 0.553 ± 0.041
- relative viability (SW872; 1.111 µM): 0.516 ± 0.048
- relative viability (SW872; 3.333 µM): 0.518 ± 0.031
- relative viability (SW872; 10 µM): 0.461 ± 0.015
- relative viability (KHOS-NP; 0.00017 µM): 1.05 ± 0.013
- relative viability (KHOS-NP; 0.00051 µM): 1.05 ± 0.026
- relative viability (KHOS-NP; 0.00152 µM): 1.03 ± 0.022
- relative viability (KHOS-NP; 0.00457 µM): 1.044 ± 0.01
- relative viability (KHOS-NP; 0.01372 µM): 1.05 ± 0.025
- relative viability (KHOS-NP; 0.04115 µM): 1.036 ± 0.0084
- relative viability (KHOS-NP; 0.1235 µM): 1.04 ± 0.017
- relative viability (KHOS-NP; 0.3704 µM): 1 ± 0.033
- relative viability (KHOS-NP; 1.111 µM): 0.96 ± 0.043
- relative viability (KHOS-NP; 3.333 µM): 0.907 ± 0.09
- relative viability (KHOS-NP; 10 µM): 0.0158 ± 0.00056
- relative viability (HS729; 0.00017 µM): 0.909 ± 0.023
- relative viability (HS729; 0.00051 µM): 0.926 ± 0.028
- relative viability (HS729; 0.00152 µM): 0.907 ± 0.024
- relative viability (HS729; 0.00457 µM): 0.931 ± 0.057
- relative viability (HS729; 0.01372 µM): 0.903 ± 0.071
- relative viability (HS729; 0.04115 µM): 0.854 ± 0.15
- relative viability (HS729; 0.1235 µM): 0.811 ± 0.084
- relative viability (HS729; 0.3704 µM): 0.758 ± 0.097
- relative viability (HS729; 1.111 µM): 0.753 ± 0.029
- relative viability (HS729; 3.333 µM): 0.739 ± 0.029
- relative viability (HS729; 10 µM): 0.388 ± 0.11
